The subject of test [1] is VHL knockdown xenograft tumors. As to the kind of experiment: Microvessel density by CD-31 immunolabeling in xenograft tumors. It counts as in vivo, SCID mice. As to the method: (§1) FIGS. 2A-2C. Effects of VHL knockdown on angiogenesis. (a) Microvessel density was quantified by CD-31 immunolabeling (arrows) in the xenograft tumors, and difference between CCI-779 treated (+) and vehicle (−) treated mice quantified (n=6 in each group). P<0.0033 for microvessel density counts in VHL shRNA compared to vector only (see blue bars). (b) Similar number of cells were plated and maintained in 10% serum rich media, in the presence (+) or absence (−) of 10 nM CCI-779. Thirty-six hours later, conditioned media was analyzed by anti-VEGF ELISA and cell extracts prepared for protein quantification. VEGF values were normalized to total cellular protein. Error bars equal one standard deviation (n=3). (c) Immunohistochemistry for VEGF protein was performed on paraffin embedded tumor xenografts from vehicle and CCI-779 treated mice.
(§2) Xenograft tumor samples were fixed in 10% buffered formalin and embedded in paraffin. […] Microvessel density was quantified by as described previously (Weidner, N. et al. J Natl Cancer Inst 84, 1875-87 (1992)). Briefly, microvessel density was determined by light microscopy in areas of the xenograft tumor containing highest numbers of capillaries and small venules (microvessels) per area (i.e. neovascular “hotspots”) by scanning the tumor sections at low power (40× and 100×). […]

In test [2] the test system is VEGF. As to the kind of experiment: VEGF immunohistochemistry on xenograft tumors. It counts as in vivo, SCID mice. The conditions noted are these: CCI-779 treated vs vehicle. The procedure:
as §1, §2

In test [3] the test system is HIF-1α mRNA. As to the kind of experiment: Real-time quantitative RT-PCR of HIF-1α transcript. The conditions noted are these: 10 nM CCI-779. It counts as cell-based, human. The procedure:
Total RNA was extracted from SN12C-CSCG, ACHN-CSCG, SN12C-CSCG-VHLshRNA and ACHN-CSCG-VHL shRNA cell lines treated with vehicle or 10 nM of CCI-779 using the RNeasy kit (Qiagen). Two μg of total RNA was used as a template for the production of c DNA through reverse transcription. The reactions were assembled as in a 25 μl final volume as follows: 1 μM primers (random hexamers; Invitrogen), 10 mM DTT, 1X Superscript II buffer, […] of dATP, dCTP, dGTP and dTTP, 10U RNasin, 200 units of Superscript II reverse transcriptase. Each RNA template, primer and nuclease free water were combined and incubated for 10 minutes, then placed in an ice bath. The remaining reaction components were added and each reaction was incubated at 25° C. for 10 minutes, then 42° C. for 60 minutes and finally 70° C. for 15 minutes. Negative control reactions (which contained no RT enzyme) were also assembled. Real-time PCR was performed on an ABI Prism 7700 sequence detector (Applied Biosystems). Primers and specific probes for HIF-1α and 18S were obtained from Assays-on Demand Gene Expression products (Applied Biosystems). […] Threshold cycles (Ct's) for the RT samples were recorded. […] Tracer uptake by the tumors was expressed as the ratio between the maximum intratumoral and mean hepatic counts/pixel. All quantitative values are reported as mean±standard error of the mean (SEM).

Molecules are shown by their SMILES. “Also recorded” adds a separate entry of the source.

For `CO[C@H]1C[C@@H]2CC[C@@H](C)[C@@](O)(O2)C(=O)C(=O)N2CCCC[C@H]2C(=O)O[C@H]([C@H](C)C[C@@H]2CC[C@@H](OC(=O)C(C)(CO)CO)[C@H](OC)C2)CC(=O)[C@H](C)/C=C(\C)[C@@H](O)[C@@H](OC)C(=O)[C@H](C)C[C@H](C)/C=C/C=C/C=C/1C` [CCI-779], the “angiogenesis as measured by microvessel density” value in test [1] (CCI-779 treated vs vehicle) is given as “objective decrease in angiogenesis”. Besides, the “decrease in microvessel density” value in test [1] (CD-31 staining, CCI-779 0.1 mg/kg vs vehicle) is recorded as “greater than 50%”. Besides, the “VEGF protein expression in VHL knockdown xenografts” value in test [2] was “reversed; also recorded: reduced”. The “HIF-1α transcript (mRNA) levels” value in test [3] is recorded as “no effect; also recorded: without exerting any effect on transcription; also recorded: did not see any changes”.

For the origin of these results see US9261498B2, “Biomarker for sensitivity to mTOR inhibitor therapy in kidney cancer” (The Regents of the University of California, priority 2005, dated 2016).
